Structures can show the parent of a compound that is named as a salt.
Legend:
κ opioid receptor = molecular target: T1, κ opioid receptor (Homo sapiens, UniProt P41145); test: Competition binding assay on membranes of CHO cells expressing κ opioid receptor, [3H]-labeled ligand; details: for inhibition at 1 µM / inhibition at 10 µM: 0.5 h, read-out: κOR Binding rate (%); for inhibition at 1 µM / Ki: Table 2-1; for inhibition at 1 µM: 1 μM concentration of compound; for Ki: read-out: κOR Ki; for inhibition at 10 µM: Table 1-1, 10 μM concentration of compound
T1 construct: expressed in transfected cells; host or cells: CHO cells (membranes)
In short: (§1)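 CHO membranes (20–30 μg protein) incubated with [3H]-labeled ligand at 1–2 nM and test compounds, 30 min at 30° C; nonspecific binding with 1 μM corresponding ligand. Filtered on GF/C, washed with 50 mM Tris-HCl pH 7.4, scintillation-counted. IC50 converted to Ki by Ki=IC50/(1+[L]/Kd).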

δ opioid receptor = molecular target: T2, δ opioid receptor (Homo sapiens, UniProt P41143); test: Competition binding assay on membranes of CHO cells expressing δ opioid receptor, [3H]-labeled ligand; details: for inhibition at 1 µM / inhibition at 10 µM: 0.5 h, read-out: δOR Binding rate (%); for inhibition at 1 µM: 1 μM concentration of compound; for inhibition at 10 µM: Table 1-1, 10 μM concentration of compound
T2 construct: expressed in transfected cells; host or cells: CHO cells (membranes)
In short: as §1

Female mice = test: In vivo hot plate method analgesia test; details: intraperitoneal, 5 mg/kg dose; for % MPE (5 mg/kg): Table 2-2, hot plate 55° C.; for Maximum percentage effective analgesic (% MPE): Table 1-2, hot plate 55° C.
In short: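 Female mice (~20 g) on a 55° C hot plate, hindpaw response latency as pain threshold (pre-screen 5–30 s, 60 s cut-off). Latencies at 15, 30, 60 and 120 min after intraperitoneal dosing. %MPE = (post−pre latency)/(60−pre)×100, ED50 derived from %MPE.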

μ opioid receptor = molecular target: T3, μ opioid receptor (Homo sapiens, UniProt P35372); test: Competition binding assay on membranes of CHO cells expressing μ opioid receptor, [3H]-labeled ligand; details: for Ki: Table 2-1, read-out: μOR Ki; for inhibition at 10 µM: Table 1-1, 10 μM concentration of compound, mean ± SD of three measurements, read-out: μOR Binding rate (%)
T3 construct: expressed in transfected cells; host or cells: CHO cells (membranes)
In short: as §1

| SMILES | inhibition at 1 µM (κ opioid receptor) [%] | inhibition at 1 µM (δ opioid receptor; Table 2-1) [%] | % MPE (5 mg/kg) (Female mice) [%] | Ki (μ opioid receptor) [nM] | Ki (δ opioid receptor; Table 2-1, read-out: δOR Ki) [nM] | Ki (κ opioid receptor) [nM] | inhibition at 10 µM (κ opioid receptor) [%] | inhibition at 10 µM (δ opioid receptor) [%] | Maximum percentage effective analgesic (% MPE) (Female mice) [%] | inhibition at 10 µM (μ opioid receptor) [%] |
| --- | --- | --- | --- | --- | --- | --- | --- | --- | --- | --- |
| COc1cccc(C2(O)CCN(S(=O)(=O)Cc3ccc(Cl)cc3)CC2CN(C)C)c1.Cl (stereo not drawn) [FWBH11, 1-((4-Chlorobenzyl)sulfonyl)-3-((dimethylamino)methyl)-4-(3-methoxyphenyl)piperidin-4-ol hydrochloride] | 36.6 ± 3.32 | 50.9 ± 1.58 | 55.49 | 711.7 ± 3.65 |  |  |  |  |  |  |
| COc1cccc(C2(O)CCN(S(=O)(=O)Cc3ccc(F)cc3)CC2CN(C)C)c1.Cl (stereo not drawn) [FWBH12, 3-((Dimethylamino)methyl)-1-((4-fluorobenzyl)sulfonyl)-4-(3-methoxyphenyl)piperidin-4-ol hydrochloride] | 45.9 ± 2.11 |  | 332.92 | 39.2 ± 6.13 | 1110 ± 28.5 |  |  |  |  |  |
| COc1cccc(C2(O)CCN(S(=O)(=O)Cc3cccc(Br)c3)CC2CN(C)C)c1.Cl (stereo not drawn) [FWBH13, 1-((3-Bromobenzyl)sulfonyl)-3-((dimethylamino)methyl)-4-(3-methoxyphenyl)piperidin-4-ol hydrochloride] | 42.1 ± 2.29 | 15.1 ± 2.47 | 81.71 | 18.2 ± 4.37 |  |  |  |  |  |  |
| COc1cccc(C2(O)CCN(S(=O)(=O)Cc3ccccc3F)CC2CN(C)C)c1.Cl (stereo not drawn) [FWBH14, 3-((Dimethylamino)methyl)-1-((2-fluorobenzyl)sulfonyl)-4-(3-methoxyphenyl)piperidin-4-ol hydrochloride] | 17.6 ± 6.34 | 40.8 ± 2.66 | 81.20 | 29.6 ± 2.53 |  |  |  |  |  |  |
| CCCCS(=O)(=O)N1CCC(O)(c2cccc(OC)c2)C(CN(C)C)C1.Cl (stereo not drawn) [FWBH15, 1-(Butylsulfonyl)-3-((dimethylamino)methyl)-4-(3-methoxyphenyl)piperidin-4-ol hydrochloride] | 9.86 ± 2.67 | 27.2 ± 1.43 | 93.73 | 34.9 ± 9.4 |  |  |  |  |  |  |
| COc1cccc(C2(O)CCN(S(=O)(=O)c3ccccc3)CC2CN(C)C)c1.Cl (stereo not drawn) [FWBH16, 3-((Dimethylamino)methyl)-4-(3-methoxyphenyl)-1-(phenylsulfonyl)piperidin-4-ol hydrochloride] | 32.6 ± 0.55 | 40.5 ± 1.66 | 100 | 87.7 ± 9.37 |  |  |  |  |  |  |
| COc1cccc(C2(O)CCN(S(=O)(=O)Cc3ccc(C(F)(F)F)cc3)CC2CN(C)C)c1.Cl (stereo not drawn) [FWBH17, 3-((Dimethylamino)methyl)-4-(3-methoxyphenyl)-1-((4-(trifluoromethyl)benzyl)sulfonyl) piperidin-4-ol hydrochloride] | 25.4 ± 5.93 | 29.3 ± 1.66 | 48.32 | 261 ± 35.3 |  |  |  |  |  |  |
| CCS(=O)(=O)N1CCC(O)(c2cccc(OC)c2)C(CN(C)C)C1.Cl (stereo not drawn) [FWBH18, 3-((Dimethylamino)methyl)-1-(ethylsulfonyl)-4-(3-methoxyphenyl)piperidin-4-ol hydrochloride] | 13.5 ± 2.22 | 24 ± 0.49 | 15.57 | 180 ± 11.7 |  |  |  |  |  |  |
| CCCS(=O)(=O)N1CCC(O)(c2cccc(OC)c2)C(CN(C)C)C1.Cl (stereo not drawn) [FWBH19, 3-((Dimethylamino)methyl)-4-(3-methoxyphenyl)-1-(propylsulfonyl)piperidin-4-ol hydrochloride] | 19.1 ± 10.3 | 17.5 ± 4.38 | 17.04 | 133 ± 3.1 |  |  |  |  |  |  |
| COc1cccc(C2(O)CCN(S(=O)(=O)C(C)C)CC2CN(C)C)c1.Cl (stereo not drawn) [FWBH20, 3-((Dimethylamino)methyl)-1-(isopropylsulfonyl)-4-(3-methoxyphenyl)piperidin-4-ol hydrochloride] | 6.88 ± 4.38 | 20.8 ± 1.91 | 0 | 255 ± 5.3 |  |  |  |  |  |  |
| C=CCS(=O)(=O)N1CCC(O)(c2cccc(OC)c2)C(CN(C)C)C1.Cl (stereo not drawn) [FWBH21, 1-(Allylsulfonyl)-3-((dimethylamino)methyl)-4-(3-methoxyphenyl)piperidin-4-ol hydrochloride] | 17.1 | 31.52 ± 0.21 | 18.80 | 40.4 ± 4.99 |  |  |  |  |  |  |
| COc1cccc(C2(O)CCN(S(=O)(=O)Cc3cccc([N+](=O)[O-])c3)CC2CN(C)C)c1.Cl (stereo not drawn) [FWBH22, 3-((Dimethylamino)methyl)-4-(3-methoxyphenyl)-1-((3-nitrobenzyl)sulfonyl)piperidin-4-ol hydrochloride] | 32.7 ± 3.1 | 10.2 ± 3.19 | 41.43 | 212 ± 9 |  |  |  |  |  |  |
| COc1cccc(C2(O)CCN(S(C)(=O)=O)CC2CN(C)C)c1.Cl (stereo not drawn) [FWBH23, 3-((Dimethylamino)methyl)-4-(3-methoxyphenyl)-1-(methylsulfonyl)piperidin-4-ol hydrochloride] | 14.3 ± 3.33 | 16 ± 1.99 | 16.87 | 192 ± 15 |  |  |  |  |  |  |
| COc1cccc(C2(O)CCN(S(=O)(=O)C[C@@]34CC[C@@H](CC3=O)C4(C)C)CC2CN(C)C)c1 (stereo partly drawn) [FWBH24, (1R,4S)-1-(((3-((Dimethylamino)methyl)-4-hydroxy-4-(3-methoxyphenyl)piperidin-1-yl)sulfonyl)methyl)-7,7-Dimethylbicyclo[2.2.1]heptan-2-one hydrochloride] |  | 11.1 ± 1.3 | 54.81 | 65.1 ± 5.36 |  | 433 ± 15.3 |  |  |  |  |
| COc1cccc(C2(O)CCN(S(=O)(=O)C[C@]34CC[C@H](CC3=O)C4(C)C)CC2CN(C)C)c1 (stereo partly drawn) [FWBH25, (1S,4R)-1-(((3-((Dimethylamino)methyl)-4-hydroxy-4-(3-methoxyphenyl)piperidin-1-yl)sulfonyl)methyl)-7,7-dimethylbicyclo[2.2.1]heptan-2-one hydrochloride] |  | 14.3 ± 8.63 | 6.03 | 50.8 ± 1.56 |  | 54 ± 20.9 |  |  |  |  |
| COc1cccc(C2(O)CCN(S(=O)(=O)C[C@@]34CC[C@@H](CC3O)C4(C)C)CC2CN(C)C)c1 (stereo partly drawn) [FWBH26, 3-((Dimethylamino)methyl)-1-((((1R,4S)-2-hydroxy-7,7-dimethylbicyclo[2.2.1]hept-1-yl)methyl)sulfonic acid acyl)-4-(3-methoxyphenyl)piperidin-4-ol hydrochlorid, hydrochloride] |  | 9.15 ± 1.92 | 44.91 | 11.5 ± 1.6 |  | 8.2 ± 3.1 |  |  |  |  |
| COc1cccc(C2(O)CCN(S(=O)(=O)C[C@]34CC[C@H](CC3O)C4(C)C)CC2CN(C)C)c1 (stereo partly drawn) [FWBH27, 3-((Dimethylamino)methyl)-1-((((1S,4R)-2-hydroxy-7,7-dimethylbicyclo[2.2.1]hept-1-yl)methyl)sulfonyl)-4-(3-methoxyphenyl)piperidin-4-ol hydrochloride] |  | 24.8 ± 0.77 | 12.21 | 32.5 ± 3.3 |  | 27.7 ± 3.9 |  |  |  |  |
| COc1cccc(C2(O)CCC(N(C)S(=O)(=O)c3ccccc3)CC2CN(C)C)c1.Cl (stereo not drawn) [N-(3-((Dimethylamino)methyl)-4-hydroxy-4-(3-methoxyphenyl)cyclohexyl)-N-methylbenzenesulfonamide hydrochloride] |  |  |  |  |  |  | 46.7 ± 9.2 | 0 | 15.8 | 86.7 ± 1.6 |
| COc1cccc(C2(O)CCC(N(C)S(=O)(=O)c3cccs3)CC2CN(C)C)c1.Cl (stereo not drawn) [N-(3-((Dimethylamino)methyl)-4-hydroxy-4-(3-methoxyphenyl)cyclohexyl)-N-methylthiophene-2-sulfonamide hydrochloride] |  |  |  |  |  |  | 51.4 ± 7.5 | 0 | 14.3 | 62 ± 6.8 |
| COc1cccc(C2(O)CCC(NS(=O)(=O)c3cccs3)CC2CN(C)C)c1.Cl (stereo not drawn) [N-(3-((Dimethylamino)methyl)-4-hydroxy-4-(3-methoxyphenyl)cyclohexyl)thiophene-2-sulfonamide hydrochloride] |  |  |  |  |  |  | 37 ± 6.8 | 0 | 19.5 | 57 ± 4.8 |
| COc1cccc(C2(O)CCC(N(Cc3ccccc3)S(=O)(=O)c3cccs3)CC2CN(C)C)c1.Cl (stereo not drawn) [N-Benzyl-N-(3-((dimethylamino)methyl)-4-hydroxy-4-(3-methoxyphenyl)cyclohexyl)thiophene-2-sulfonamide hydrochloride] |  |  |  |  |  |  | 71.2 ± 2.7 | 0 | 22.8 | 68.4 ± 3.4 |

— patent publication US12624004B2 (Fudan University, priority 2019, dated 2026)
